Consider 1 compound from ChEMBL document CHEMBL3525955, “Glucuronidation of the red clover isoflavone irilone by liver microsomes from different species and human UDP-glucuronosyltransferases” (Drug Metab Dispos, 2011).

Molecules are shown by their SMILES.

For data set [1], the system named is Liver microsome. The experiment in a line: Drug metabolism in human liver microsomes assessed as IRI-O-4'-monoglucuronide formation incubated for 5 mins prior to UDPGA addition measured after 90 mins by Eadie-Hoftsee plot analysis. The conditions noted are these: 1.5 h. The class given is ADME.
In data set [2] the target is Liver microsome. Kind of data set: Drug metabolism in Sprague-Dawley rat liver microsomes assessed as substrate inhibition of IRI-O-5-monoglucuronide formation incubated for 5 mins prior to UDPGA addition measured after 90 mins by Eadie-Hoftsee plot analysis. The class given is ADME.
Data set [3] concerns the target Liver microsome. The experiment in a line: Drug metabolism in human liver microsomes assessed as substrate inhibition of IRI-O-4'-monoglucuronide formation incubated for 5 mins prior to UDPGA addition measured after 90 mins by Eadie-Hoftsee plot analysis. The class given is ADME.
Data set [4] concerns the target Liver microsome. The experiment in a line: Drug metabolism in Sprague-Dawley rat liver microsomes assessed as substrate inhibition of IRI-O-4'-monoglucuronide formation incubated for 5 mins prior to UDPGA addition measured after 90 mins by Eadie-Hoftsee plot analysis. The class given is ADME.
The nature of data set [5]: Drug metabolism in pig liver microsomes assessed as IRI-O-5-monoglucuronide formation incubated for 5 mins prior to UDPGA addition measured after 90 mins by Eadie-Hoftsee plot analysis. The conditions noted are these: 1.5 h. In kind it is ADME, Sus scrofa.
The target in data set [6] is T1, UDP-glucuronosyltransferase 1A10 (Homo sapiens, UniProt Q9HAW8).
T1 sequence (Q9HAW8 whole entry): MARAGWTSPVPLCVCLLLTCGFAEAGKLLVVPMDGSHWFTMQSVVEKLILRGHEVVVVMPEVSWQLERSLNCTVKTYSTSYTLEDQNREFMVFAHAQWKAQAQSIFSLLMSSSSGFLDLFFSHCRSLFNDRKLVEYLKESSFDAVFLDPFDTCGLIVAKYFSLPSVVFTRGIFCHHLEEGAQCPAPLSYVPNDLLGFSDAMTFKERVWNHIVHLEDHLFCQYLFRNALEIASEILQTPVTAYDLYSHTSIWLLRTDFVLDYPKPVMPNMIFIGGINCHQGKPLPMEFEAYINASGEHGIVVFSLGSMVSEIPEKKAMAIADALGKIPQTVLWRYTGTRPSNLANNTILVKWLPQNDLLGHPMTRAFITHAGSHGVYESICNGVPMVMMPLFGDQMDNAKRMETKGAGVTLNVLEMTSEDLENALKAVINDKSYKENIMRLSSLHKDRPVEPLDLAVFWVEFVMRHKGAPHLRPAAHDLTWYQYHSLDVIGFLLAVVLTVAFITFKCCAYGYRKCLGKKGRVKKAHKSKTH
Kind of data set: Substrate inhibition of human recombinant UGT1A10 assessed as IRI-O-4'-monoglucuronide formation incubated for 5 mins prior to UDPGA addition measured after 90 mins by Eadie-Hoftsee plot analysis. The class given is ADME.

For data set [7], the target named is T2, UDP-glucuronosyltransferase 1A9 (Homo sapiens, UniProt O60656).
T2 sequence (O60656 whole entry): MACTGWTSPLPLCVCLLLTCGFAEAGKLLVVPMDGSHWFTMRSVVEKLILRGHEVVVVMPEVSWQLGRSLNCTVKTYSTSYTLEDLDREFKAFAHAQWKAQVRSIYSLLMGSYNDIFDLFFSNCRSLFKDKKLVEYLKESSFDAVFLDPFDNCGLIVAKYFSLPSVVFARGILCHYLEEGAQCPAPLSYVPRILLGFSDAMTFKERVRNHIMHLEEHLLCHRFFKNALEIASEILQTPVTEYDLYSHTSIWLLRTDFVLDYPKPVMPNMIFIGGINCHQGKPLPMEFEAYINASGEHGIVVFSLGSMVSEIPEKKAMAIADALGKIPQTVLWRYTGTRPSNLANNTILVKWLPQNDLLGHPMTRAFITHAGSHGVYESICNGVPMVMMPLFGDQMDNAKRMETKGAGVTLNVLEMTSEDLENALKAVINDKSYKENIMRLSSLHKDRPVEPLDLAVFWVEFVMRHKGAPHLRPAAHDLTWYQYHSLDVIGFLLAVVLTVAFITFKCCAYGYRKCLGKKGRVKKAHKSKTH
Kind of data set: Substrate inhibition of human recombinant UGT1A9 assessed as IRI-O-5-monoglucuronide formation incubated for 5 mins prior to UDPGA addition measured after 90 mins by Eadie-Hoftsee plot analysis. In kind it is ADME.

In data set [8] the test system is Liver microsome. Kind of data set: Drug metabolism in human liver microsomes assessed as IRI-O-5-monoglucuronide formation incubated for 5 mins prior to UDPGA addition measured after 90 mins by Eadie-Hoftsee plot analysis. The class given is ADME. The conditions noted are these: 1.5 h.
The target of data set [9] is T3, UDP-glucuronosyltransferase 1A8 (Homo sapiens, UniProt Q9HAW9).
T3 sequence (Q9HAW9 whole entry): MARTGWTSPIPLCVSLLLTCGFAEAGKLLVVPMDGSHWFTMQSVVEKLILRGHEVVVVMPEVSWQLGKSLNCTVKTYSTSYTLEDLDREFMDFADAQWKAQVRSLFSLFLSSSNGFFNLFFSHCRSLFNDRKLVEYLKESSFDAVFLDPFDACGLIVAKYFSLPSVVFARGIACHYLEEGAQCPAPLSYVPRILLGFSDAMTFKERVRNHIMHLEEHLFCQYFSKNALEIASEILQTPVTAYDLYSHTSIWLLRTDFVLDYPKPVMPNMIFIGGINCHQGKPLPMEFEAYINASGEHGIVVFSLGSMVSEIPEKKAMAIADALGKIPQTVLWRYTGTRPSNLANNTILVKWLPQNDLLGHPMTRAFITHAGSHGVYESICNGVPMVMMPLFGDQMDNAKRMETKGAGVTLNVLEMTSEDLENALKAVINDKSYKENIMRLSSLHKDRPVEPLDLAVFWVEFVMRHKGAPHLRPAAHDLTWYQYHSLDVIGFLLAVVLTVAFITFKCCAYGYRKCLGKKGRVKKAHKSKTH
Kind of data set: Activity of human recombinant UGT1A8 assessed as intrinsic clearance incubated for 5 mins prior to UDPGA addition measured after 90 mins. The class given is ADME. The conditions noted are these: recombinant enzyme, 1.5 h.

Data set [10] has as its target T1, UDP-glucuronosyltransferase 1A10. The experiment in a line: Substrate inhibition of human recombinant UGT1A10 assessed as IRI-O-5-monoglucuronide formation incubated for 5 mins prior to UDPGA addition measured after 90 mins by Eadie-Hoftsee plot analysis. In kind it is ADME.
Data set [11] deals with T3, UDP-glucuronosyltransferase 1A8. The experiment in a line: Substrate inhibition of human recombinant UGT1A8 assessed as IRI-O-5-monoglucuronide formation incubated for 5 mins prior to UDPGA addition measured after 90 mins by Eadie-Hoftsee plot analysis. The class given is ADME.

On to `O=c1c(-c2ccc(O)cc2)coc2cc3c(c(O)c12)OCO3`, for which the Km in the data set with Liver microsome [1] was 64.7 µM; in data set [5], 16.8 µM; with Liver microsome [8], 9.8 µM. Moreover, the Vmax with Liver microsome [1] worked out at 0.34 nmol/mg/min; in data set [5], 0.28 nmol/mg/min; in the data set with Liver microsome [8], 0.43 nmol/mg/min. For the same compound, the Ki on Liver microsome [2] is 65.3 µM; on Liver microsome [3] it was 50.9 µM; on Liver microsome [4] it was 44.7 µM; in data set [6] it was 121 µM; in data set [7], 534 µM; in data set [10], “Not Active”. Moreover, the Ki in data set [11] came to 22.6 µM. In data set [9], the CL stood at 20200 µL/min/mg.
